Results: US11185524B2 (Novus International, Inc., priority 2019, dated 2021)
Marks after values point to notes of the source that are not given here.

Columns and labels:
[1] = tested on: rumen microorganisms; assay: In vitro evaluation of rumen protection: degradation by rumen microorganisms in rumen fluid incubation; type: in vitro ADME, Holstein steers (rumen fluid donors); conditions: male, Holstein, cattle, 12 h
Experimental: Schematics of the HMTBa derivatives are presented below in Table. 1. Following the methodology of Patterson and Kung (J. Dairy Sci., 1988, vol. 71, pp. 3292-3301), fermentation substrate comprising casein, cellobiose, starch, pectin, and cellulose was added at a rate of 0.45 g to 250 mL fermentation flasks. HMTBa derivatives were randomly assigned to flasks and thoroughly mixed to ensure that all compounds were incorporated into the substrate. Methionine hydroxy analog (MHA), polymer encapsulated methionine (eMet) were also included as controls, as well as a blank. A total of 28 fermentation flasks were used, resulting in 4 replicates per treatment for each of the two experiments. Three cannulated Holstein steers were utilized as rumen fluid donors. Steers were housed on pasture, allowed to graze freely, and provided free choice supplement. Approximately 1000 mL of rumen fluid and a handful of rumen contents were obtained from each steer. Rumen fluid and contents were combined in pre-heated thermoses, transported to the lab, blended using a hand blender, and strained through 8 layers of cheese cloth. Combined rumen fluid was maintained under CO2 and thoroughly mixed. […] Due to variability associated with in vitro methodology, replicates were evaluated for similarity. […] Recovery of HMTBa or methionine was determined and expressed relative to initial amount of HMTBA or methionine (active) added. […]

[2] = in vivo

Row | SMILES | Free Active recovered [1] | Ruminal undegradability (estimated ruminal stability) [1] | HMTBa in plasma [2] | L-methionine in plasma [2] | Methionine equivalents in plasma (sum of L-methionine, D-methionine, and HMTBa) [2]
1 | CSCCC1OC(=O)C(CCSC)OC1=O (centres unmarked) [Cyclic Dimer, 3,6-bis(2-methylthio)ethyl-1,4-dioxane-2,5-dione] | 439.6^c ppm | 56.64^c |  |  | 
2 | CSCCC(O)C(=O)O (centres unmarked) [MHA, Methionine hydroxy analog] |  |  | 0.324^a μg/mL | 5.312^a μg/mL | 5.666^a μg/mL
